# In patent publication US20060276372A1, “Carotenoids, carotenoid analogs, or carotenoid derivatives for the treatment of proliferative disorders” (priority 2005, published 2006):
# Read-outs that look alike come from different tables or passages of the source.
# Columns and labels:
# superoxide anion = test: Direct superoxide anion scavenging by EPR spectroscopy (DEPMPO spin trap), PMA-stimulated isolated human PMNs; type: cell-based
# Experimental: Leukocyte Isolation and Preparation. Human polymorphonuclear leukocytes (PMNs) were isolated from freshly sampled venous blood of a single volunteer by Percoll density gradient centrifugation as described previously. Briefly, each 10 mL of whole blood was mixed with 0.8 mL of 0.1 M EDTA and 25 mL of saline. The diluted blood was then layered over 9 mL of Percoll at a specific density of 1.080 g/mL. After centrifugation at 400×g for 20 min at 20° C., the plasma, mononuclear cell, and Percoll layers were removed. Erythrocytes were subsequently lysed by addition of 18 mL of ice-cold water for 30 s, followed by 2 mL of 10×PIPES buffer (25 mM PIPES, 110 mM NaCl, and 5 mM KCl, titrated to pH 7.4 with NaOH). Cells were then pelleted at 4° C., the supernatant was decanted, and the procedure was repeated. After the second hypotonic cell lysis, cells were washed twice with PAG buffer [PIPES buffer containing 0.003% human serum albumin (HSA) and 0.1% glucose]. Afterward, PMNs were counted by light microscopy on a hemocytometer. The isolation yielded PMNs with a purity of >95%. The final pellet was then suspended in PAG-CM buffer (PAG buffer with 1 mM CaCl2 and 1 mM MgCl2).
# EPR Measurements. All EPR measurements were performed using a Bruker ER 300 EPR spectrometer operating at X-band with a TM110 cavity as previously described. The microwave frequency was measured with a Model 575 microwave counter (EIP Microwave, Inc., San Jose, Calif.). To measure superoxide anion (O2) generation from phorbol-ester (PMA)-stimulated PMNs, EPR spin-trapping studies were performed using the spin trap DEPMPO (Oxis, Portland, Oreg.) at 10 mM. 1×10^6 PMNs were stimulated with PMA (1 ng/mL) and loaded into capillary tubes for EPR measurements. To determine the radical scavenging ability of 3 and 9 in aqueous and ethanolic formulations, PMNs were pre-incubated for 5 minutes with test compound, followed by PMA stimulation.
# Instrument settings used in the spin-trapping experiments were as follows: modulation amplitude, 0.32 G; time constant, 0.16 s; scan time, 60 s; modulation frequency, 100 kHz; microwave power, 20 milliwatts; and microwave frequency, 9.76 GHz. The samples were placed in a quartz EPR flat cell, and spectra were recorded. The component signals in the spectra were identified and quantified as reported previously.
# CX43 = CX43 plaques by indirect immunofluorescence in 10T1/2 cells; type: cell-based, Mouse; settings: 4 days; for CX43 immunoreactive plaques / gap junction assembly: 10^−8 M
# Experimental: Analysis of CX43 protein by indirect immunofluorescence. Expression and assembly of CX43 into plaques was assessed by immunofluorescence staining essentially as described in Rogers et al, 1990, which is incorporated herein by reference. Briefly, confluent cultures of 10T1/2 cells were grown on Permanox plastic 4-chamber slides (Nalge Nunc International, Naperville, Ill.) and treated for 4 days as described above. Cells were fixed with −20° C. methanol overnight, washed in buffer, blocked in 1% bovine serum albumin (Sigma, St. Louis, Mo.) in PBS, incubated with the rabbit anti-CX43 antibody, and visualized with Alexa568 conjugated anti-rabbit secondary antibody (Molecular Probes, Eugene, Oreg.). Images were acquired with a Zeiss Axioplan microscope and a Roper Scientific cooled CCD camera.
# 10T1/2 cells [1] = type: cell-based, Mouse; settings: for % Inhibition of MCA-induced transformation: 4 week period; for Foci/dish (mean Type II + Type III foci, 24 dishes): 4 week period after MCA
# Experimental: Inhibition of MCA-induced neoplastic transformation in 10T1/2 cells. Cells were initiated with methylcholanthrene (MCA) […] (Sigma, St. Louis, Mo.) in acetone for 24 hours. Potential inhibitors of neoplastic transformation were added 7 days after removal of carcinogen as indicated and were renewed weekly by adding fresh medium supplemented with the appropriate drug for four weeks after removal of the carcinogen. The cultures were fixed and stained as described above. A total of 24 dishes of cells were used per treatment group. Type II and III foci were identified and then quantitated as described in Bertram et al., 1990, which is incorporated herein by reference.
# Statistical analysis. Transformation data was analyzed by one-tailed, two-sample t-tests that incorporated unequal variances. The scrape-loading data was analyzed by paired t-tests.
# [2] = Determination of aqueous solubility/dispersibility; type: physicochemical
# Experimental: (§1) Determination of aqueous solubility/dispersibility. 30.13 mg of 3 was added to 1 mL of USP-purified water. The sample was rotated for 2 hours, then centrifuged for 5 minutes. After centrifuging, solid was visible in the bottom of the tube. A 125-μL aliquot of the solution was then diluted to 25 mL. The sample was analyzed by UV/Vis spectroscopy at 436 nm, and the absorbance was compared to a standard curve compiled from 4 standards of known concentration. The concentration of the original supernatant was calculated to be 2.85 mg/mL and the absorptivity was 36.94 AU*mL/cm*mg. Slight error may have been introduced by the small size of the original aliquot.
# as §1, with “Next, 30.80” for “Determination of aqueous solubility/dispersibility. 30.13”, “9” for “3”, “UViis” for “UV/Vis”, “411” for “436”, “The concentration of the original supernatant was calculated to be 2.85 mg/mL and the absorptivity was 36.94 AU*mL/cm*mg.” left out
# Determination of aqueous solubility/dipsersibility of pAST. 23.70 mg of tetrasodium diphosphate astaxanthin was added to 1 ml of USP purified water. The mixture was stirred for 2 hours, and centrifuged for 5 minutes. The solution was diluted in water and analyzed by UV/vis spectroscopy at 480 nm and absorbance was compared to a standard curve compiled from 4 standards of known concentration.
# 10T1/2 cells [3] = test: Gap junctional communication, scrape-loading dye transfer assay; type: cell-based, Mouse; settings: 7 days
# Experimental: Gap junctional communication assay. Junctional permeability was assayed by the scrape-loading dye transfer assay essentially as described in El-Fouly et al., 1987, which is incorporated herein by reference. Briefly, confluent cultures of 10T1/2 cells grown in 60 mm dishes were treated with the indicated compounds for 7 days. The treated cells were washed with Ca^+2-free phosphate-buffered saline (PBS). 1.5 ml of Lucifer Yellow CH (Sigma, St. Louis, Mo.) 0.2% in PBS was then added, and linear cuts were made on the monolayer using a surgical scalpel. The cultures were incubated for 2 minutes at 37° C. then rinsed thoroughly with PBS. The cultures were then fixed with 2 ml of 5% formaldehyde in PBS. Images were digitally quantitated by intensity thresholding using the SigmaScan software program (Jandel Scientific, San Rafael, Calif.).
# CX43 protein = CX43 protein expression in 10T1/2 cells by Western blotting (Example 1); type: cell-based, Mouse; settings: 4 days
# Experimental: Cell lines and culture conditions. Mouse embryonic fibroblast 10T1/2 cells were cultured in Eagle's basal medium with Earle's salts supplemented with 4% fetal calf serum (Atlanta Biologicals, Norcross, Ga.), 25 μg/ml gentamicin sulfate (Sigma, St. Louis, Mo.), and passaged by trypsin/EDTA (Gibco Invitrogen, Carlsbad, Calif.) and maintained at 37° C. in a 5% CO2 atmosphere. The cells were allowed to grow until a monolayer was formed. The confluent cells were treated 7 days after seeding, unless otherwise indicated. dAST was prepared in a formulation of 20% EtOH and sterile water (0.2% final EtOH ) to minimize supramolecular aggregation, and the final concentration of EtOH in culture medium was 0.2%. CTX was dissolved in THF and added to media. TTNPB was dissolved in acetone (Sigma, St. Louis, Mo.) and cultures received a final acetone concentration of 0.1%.
# Analysis of CX43 protein expression. Expression of CX43 protein in 10T1/2 cells was assessed by Western blotting. 10T1/2 cell monolayers were treated with the indicated carotenoid derivatives or with retinoids (as a positive control for the modulation of CX43 expression) 7 days after seeding in 100 mm dishes (Fisher Scientific, Pittsburgh, Pa.). Fours days after the drug was added to the cells, the cells were harvested, total cellular protein was isolated and the total protein concentration thereof was determined using a commercially available Protein Assay Reagent kit (Pierce Chemical Co., Rockford, Ill.). 40 μg of total cellular protein was resolved on an SDS-PAGE gel, transferred to a nitrocellulose membrane, and analyzed by Western blotting using the NuPage Western blotting kit (Invitrogen, Carlsbad, Calif.). CX43 was detected using a rabbit polyclonal antibody (Zymed, San Francisco, Calif.) raised against a synthetic polypeptide corresponding to the C-terminal domain common to mouse, human and rat CX43. Equal protein loafing was verified by immunoblotting for GAPDH, the expression of which is unaffected by treatment with retinoids or carotenoids, using a rabbit polyclonal GAPDH antibody was also used (Zymed, San Francisco, Calif.). CX43 and GAPDH immunoreactive bands were visualized by chemiluminescence using an anti-rabbit HRP-conjugated secondary antibody (Pierce Chemical Co., Rockford, Ill.). Images were obtained by exposure to X-ray film as previously described and scanned for digital analysis on the Fluoro-S Imager (Bio-Rad, Richmond, Calif.).
# [4] = 0.1 mM in 40% EtOH, sodium salt
compound,measurement,setting,value
"3,3′-Diphosphoryloxy-β,ε-carotene sodium salt [Lutein Diphosphate Sodium Salt]",Mean (% inhibition) of superoxide anion signal,"superoxide anion; 0.1 mM in 40% EtOH, listed as disodium diphosphate derivative of natural source lutein, sodium salt",18%
same,Mean (% inhibition) of superoxide anion signal,superoxide anion; [4],18.0%
same,Mean (% inhibition) of superoxide anion signal,"superoxide anion; 0.1 mM in water, listed as disodium diphosphate derivative of natural source lutein, sodium salt",0%
same,Mean (% inhibition) of superoxide anion signal,superoxide anion; 1.0 mM in water,9.3%
same,Mean (% inhibition) of superoxide anion signal,superoxide anion; 3.0 mM in water,72.3%
same,Mean (% inhibition) of superoxide anion signal,"superoxide anion; 5.0 mM in water, listed as disodium diphosphate derivative of natural source lutein, sodium salt",more than 90%
same,Mean (% inhibition) of superoxide anion signal,"superoxide anion; 5.0 mM in water, sodium salt",91.0%
"CC1=C(/C=C/C(C)=C/C=C/C(C)=C/C=C/C=C(C)/C=C/C=C(C)/C=C/C2=C(C)C(=O)[C@@H](O)CC2(C)C)C(C)(C)C[C@H](O)C1=O [AST, astaxanthin, reference compound]",CX43 immunoreactive plaques at regions of cell/cell apposition,CX43; 10^−6 M,few immunoreactive plaques
same,CX43 immunoreactive plaques / gap junction assembly,CX43,comparable to untreated cultures
same,neoplastic transformation,10T1/2 cells [1]; 10^−5 M for 4 weeks,strongly inhibited
same,% Inhibition of MCA-induced transformation,10T1/2 cells [1]; 10^−6 M,41%
same,"Foci/dish (mean Type II + Type III foci, 24 dishes)",10T1/2 cells [1]; 10^−6 M,0.96 foci/dish
same,% Inhibition of MCA-induced transformation,10T1/2 cells [1]; 10^−7 M,39%
same,"Foci/dish (mean Type II + Type III foci, 24 dishes)",10T1/2 cells [1]; 10^−7 M,1.00 foci/dish
same,% Inhibition of MCA-induced transformation,10T1/2 cells [1]; 10^−8 M,41%
same,"Foci/dish (mean Type II + Type III foci, 24 dishes)",10T1/2 cells [1]; 10^−8 M,0.96 foci/dish
same,foci/dish,10T1/2 cells [1]; all concentrations tested,0.98 foci/dish
same,water dispersibility,[2],insoluble in water
same,GJIC dye transfer,10T1/2 cells [3]; 10^−6 M,below that observed in untreated control cultures
same,GJIC dye transfer,10T1/2 cells [3]; 10^−7 M,roughly equivalent to that achieved in cultures treated with pAST
same,CX43 protein induction versus solvent-treated controls,CX43 protein; 10^−5 M,no change
same,CX43 protein induction versus solvent-treated controls,CX43 protein; 10^−6 M,No change
same,CX43 protein induction versus solvent-treated controls,CX43 protein; 10^−7 M,No change
"CC1=C(/C=C/C(C)=C/C=C/C(C)=C/C=C/C=C(C)/C=C/C=C(C)/C=C/C2=C(C)C(=O)CCC2(C)C)C(C)(C)CCC1=O [CTX, Canthaxanthin]",CX43 immunoreactive plaques,CX43; 10^−5 M,roughly equivalent to that achieved in cells treated with pAST at 10^−6 M
same,increase of dye transfer,10T1/2 cells [3]; 10^−5 M,4 fold
same,CX43 protein induction versus solvent-treated controls,CX43 protein; 10^−5 M,≈ 7 fold
"C/C(=C\c1ccc(C(=O)O)cc1)c1ccc2c(c1)C(C)(C)CCC2(C)C [TTNPB, tetrahydrotetramethylnaphalenylpropenyl benzoic acid]",CX43 immunoreactive plaques / gap junction assembly,CX43,extensive CX43 immunoreactive plaques
same,increase of dye transfer,10T1/2 cells [3]; 10^−8 M,6 fold
same,CX43 protein induction versus solvent-treated controls,CX43 protein; 10^−8 M,about 13 fold
"β,ε-carotenyl 3,3′-disuccinate sodium salt [Lutein Disuccinate Sodium Salt]",Mean (% inhibition) of superoxide anion signal,"superoxide anion; 0.1 mM in 40% EtOH, listed as disodium disuccinate derivative of natural source lutein, sodium salt",did not significantly increase scavenging over that provided by the EtOH vehicle alone
same,Mean (% inhibition) of superoxide anion signal,superoxide anion; [4],5.0%
same,Mean (% inhibition) of superoxide anion signal,superoxide anion; 0.1 mM in water,0%
same,Mean (% inhibition) of superoxide anion signal,superoxide anion; 1.0 mM in water,13.0%
same,Mean (% inhibition) of superoxide anion signal,superoxide anion; 3.0 mM in water,61.7%
same,Mean (% inhibition) of superoxide anion signal,"superoxide anion; 5.0 mM in water, listed as disodium disuccinate derivative of natural source lutein, sodium salt",~75%
same,Mean (% inhibition) of superoxide anion signal,"superoxide anion; 5.0 mM in water, listed as disuccinate lutein sodium salt, sodium salt",75%
same,Mean (% inhibition) of superoxide anion signal,"superoxide anion; 5.0 mM in water, sodium salt",74.7%
same,aqueous solubility/dispersibility,[2],2.85 mg/mL
